According to patent US20060025401A1, “Use of inhibitors of the sodium-dependent chloride/bicarbonate exchanger for the treatment of thrombotic and inflammatory disorders” (Sanofi-Aventis Deutschland GmbH, priority 2002, published 2006):

Key:
[1] = system: human umbilical vein endothelial cells (HUVEC); assay: Measurement of vWF release after reperfusion (ELISA of cell supernatant); assay type: cell-based
Protocol: All the examples were carried out with human umbilical vein endothelial cells (HUVEC). These comprise primary cell cultures isolated from the umbilical vein.
For the following examples, the cells were cultivated either on gelatinized glass plates (measurement of the intracellular proton concentration) or on cell culture plates (12-well culture plates, Falcon, N.J., USA; measurement of vWF release) after the first passage.
The measurements were carried out in a Heraeus Heracell incubator. This made it possible to […] the umbilical vein endothelial cells under controlled physiological conditions (temperature 37° C., relative humidity 100%, pCO2 constant at 5%) and to ensure rapid change of different cell culture media. […]
The samples taken from the supernatant were used to determine the vWF concentration. […] The vWF content of standard human plasma (Behring, Marburg) is calculated using an international standard (2nd International Standard 87/718; National Institute for Biological Standards and Control, London).
Table 4: vWF secretion was measured during a 10-minute reperfusion time with stimulation. […]

[2] = system: human umbilical vein endothelial cells (HUVEC); assay: Measurement of the intracellular pH (BCECF fluorescence) during reperfusion simulation after acidosis; assay type: cell-based; settings: reperfusion buffer pH 7.4 with 10 μM histamine after 60 minutes of acidosis (pHex 6.4); inhibitors each 10 μM; found from first 30 seconds after reperfusion; Mean ± SEM; control buffer 18 ± 1.5
Protocol: All the examples were carried out with human umbilical vein endothelial cells (HUVEC). These comprise primary cell cultures isolated from the umbilical vein. For the following examples, the cells were cultivated either on gelatinized glass plates (measurement of the intracellular proton concentration) or on cell culture plates (12-well culture plates, Falcon, N.J., USA; measurement of vWF release) after the first passage. To measure the intracellular proton concentration (pHi), the HUVECs were loaded with the pH-sensitive fluorescent dye BCECF-AM (2′,7′-bis(carboxyethyl)-5(6)-carboxyfluorescein). A Deltascan spectrofluorometer (PTI, Hamburg) was employed for the subsequent fluorescence measurement. This measuring system consists essentially of a UV light source, a monochromator, a photon detector and the Felix and Oscar software packages (PTI, Hamburg) for controlling the system via a computer. After alternate excitation with the wavelengths 439.5 nm (pH-independent) and 490 nm (pH-sensitive), the ratio of the measured emissions of the BCECF (ratio) was reported and the pH was found after a calibration. The measuring cell is designed so that the parameters of temperature and carbon dioxide partial pressure in the system are controlled during continuous perfusion. […]

Structure (SMILES) | vWF secretion during reperfusion of preacidotic cells, relative to control cells (vWFco = 100%) ([1]; 10 μM compound, 10-minute reperfusion time with stimulation (10 μM histamine), preacidotic cells without inhibitor 193 ± 8.0%) [%] | reduction of the increased vWF secretion during reperfusion ([1]; blockade of the NCBE transporter, 10 μM, reperfusion of preacidotic cells) [%] | Time to Δ PHi, max/2 (time to the half-maximum pHi change) [2] [s]
COCCOc1nc(-c2ccccc2)n(Cc2ccc(-c3ccccc3S(=O)(=O)NC#N)cc2S(C)(=O)=O)c1C=O [Compound 1, 4′-[5-formyl-4-(2-methoxyethoxy)-2-phenyl-1-imidazolylmethyl]-3′-methylsulfonylbiphenyl-2-sulfonylcyanamide] | 157 ± 18 | ~50 | –
CC(C)c1ccc(C(=O)NC(=N)N)cc1S(C)(=O)=O [NHE, cariporide] | – | – | 190 ± 2.9
